Laboratory results: patent EP3067058A1, “BIOLOGICAL COMPOSITION BASED ON ENGINEERED LACTOBACILLUS PARACASEI SUBSP. PARACASEI F19 FOR THE BIOSYNTHESIS OF CANNABINOIDS” (Farmagens Health Care Srl, priority 2015, dated 2016)

Key:
[1] = tested on: Caco-2 cells; test: MTT proliferation assay in human colon carcinoma cells; assay type: cell-based; details: 96 hrs incubation; 10^11 cfu; caproic acid 0.003-0.3µg/ml
Experimental: To confirm the chemo-preventive action of cannabidiol in the experimental conditions, a study on the putative pro-apoptotic and anticancer activity exerted by LP OAC-CAS-OLS-CsPT1+ probiotic was tested in vitro in human colon carcinoma cells. CBD release in human colon carcinoma cell line was measured at the different time points.
Caco-2 cell colture. Caco-2 cells were cultured in Dulbecco's Modified Eagle's Medium (DMEM) supplemented with 5% Foetal Bovine Serum (FBS), 2 mM glutamine, 100 U/mL penicillin, 100 µg/mL streptomycin at 37 °C in 5% CO2/95% air. At confluence cells were washed three times with Phosphate Buffer Saline (PBS), detached with tripsyn/EDTA, plated in 10 cm diameter Petri dishes and left to adhere for 24 hrs. […]
MTT Proliferation and survival assays. Cell proliferation was evaluated by 3-[4,5-dimethylthiazol-2-yl]-2,5 diphenyltetrazolium bromide (MTT) assay. […] After this time point, the cells were lysed and the dark blue crystals solubilized with 125 µl of a solution containing 50% (N,N-dimethylformamide, 20% (w/v) sodium dodecylsulphate (pH 4.5). The optical density (OD) of each well was measured with a Perkin-Elmer (Waltham, MA, USA) microplate spectrophotometer equipped with a 620 nm filter. Cell viability in response to pentamidine was calculated as % cell viability (OD treated/OC control) X 100.

[2] = tested on: Bax; test: Immunoblot of pro-apoptotic Bax protein in Caco-2 cells; assay type: cell-based, human; details: 96 hrs incubation; 10^11 cfu; caproic acid 0.003-0.3µg/ml
Experimental: Caco-2 cell colture. Caco-2 cells were cultured in Dulbecco's Modified Eagle's Medium (DMEM) supplemented with 5% Foetal Bovine Serum (FBS), 2 mM glutamine, 100 U/mL penicillin, 100 µg/mL streptomycin at 37 °C in 5% CO2/95% air. At confluence cells were washed three times with Phosphate Buffer Saline (PBS), detached with tripsyn/EDTA, plated in 10 cm diameter Petri dishes and left to adhere for 24 hrs. Thereafter, DMEM was replaced with fresh medium and cells were treated for 96 hrs with 10^11 cfu LP OAC-CAS-OLS-CsPT1^+, with caproic acid 0.003-0.3µg/ml or LP empty vector with caproic acid 0.003-0.3µg/ml.
The pro-apoptotic effect in Caco-2 cell cultured in the presence of LP OAC-CAS-OLS-CsPT1+ or LP empty vector was tested by immunoblot analysis of pro-apoptotic proteins level (Bax), as well as by rate of cells proliferation (MTT).
Immunoblot of Bax protein. Briefly, after homogenization in ice-cold hypotonic lysis buffer, protein concentration was determined using Bio-Rad protein assay kit (Bio-Rad, Milan, Italy). Analysis of Bax and β-actin protein expression was performed on total protein fractions of homogenates. Equivalent amounts (30 µg) of each homogenate underwent electrophoresis through a polyacrilamide minigel. […] Protein bands were then scanned and densitometrically analyzed with a GS-700 imaging densitometer.

[3] = smoking; cited from earlier work

Question: What does the source list for `CCCCCC(=O)O` [caproic acid]?
Answer: cell proliferation (MTT) [1]: no significant effect; expression level of the pro-apoptotic protein Bax-2 [2]: no significant effect

Question: Which “Δ^9-THC content in a cannabis cigarette that is absorbed” value [3] does the source give for `CCCCCc1cc(O)c2c(c1)OC(C)(C)[C@@H]1CCC(C)=C[C@@H]21` [Δ^9-THC, (-)-trans-Δ9-tetrahydrocannabinol] here?
Answer: The value was “about 20%”.
